Type in all cases: functional
A short description of experiment [1]: Antitumor activity against human TC118 cells xenografted in Swiss nu/nu mouse assessed as tumor growth inhibition at 150 mg/kg, ip qd for 5 days in presence of 5-FU. To be noted: 120 h, read-out: TGI. A general note: Xenograft models place foreign cells or tissue in a host animal.
Experiment [2] has as its system Homo sapiens. In words: Induction of apoptosis in tumor of colorectal cancer patient at 200 mg/day, po administered for 14 days relative to control.
In experiment [3] the test system is Homo sapiens. Description: Reduction in tumor cell proliferation in colorectal cancer patient at 0.5 to 1 g/day, po administered 8 times per day for 8 days by Ki-67 staining-based microscopic method relative to control. Set-up: scale not given: the % may be the effect or the level left.
In experiment [4] the test system is Homo sapiens. Description: Upregulation of cleaved caspase-3 levels in malignant hepatic tissue of cancer patient at 5 g/day, po administered for 10 to 21 days by immunohistochemistry relative to control.
The subject of a further experiment is CT26. Description: Antitumor activity against mouse CT26 cells implanted in BALB/c mouse at 1 mg/kg, po qd administered through oral gavage for 15 days in presence of cisplatin relative to control.
For experiment [5], the system named is Homo sapiens. In words: Reduction in aberrant crypt foci number in colorectal cancer patient at 4 g/day, po administered 30 days relative to control. Set-up: scale not given: the % may be the effect or the level left.

Consider five compounds from ChEMBL document CHEMBL4145458, “Natural compounds and combination therapy in colorectal cancer treatment” (2018).

For `CC(C)=CCC/C(C)=C/CO` [GERANIOL], in experiment [1], the inhibition in vivo at 150 mg/kg was no more than 83%.

As to `C[C@H]1[C@H](OC(=O)CCC(=O)O)O[C@@H]2O[C@@]3(C)CC[C@H]4[C@H](C)CC[C@@H]1[C@@]24OO3` [ARTESUNATE], in the experiment with Homo sapiens [2], the Activity came out at 13%.

Regarding `Oc1ccc(/C=C/c2cc(O)cc(O)c2)cc1` [RESVERATROL], the results for the Activity in the experiment on Homo sapiens [3] and in the experiment with Homo sapiens [4] were 5% and 39%, respectively.

Take `O=C(/C=C/c1ccc(O)cc1)c1ccc(O)cc1O` [ISOLIQUIRITIGENIN]: the Activity with CT26 was 79%.

The compound `COc1cc(/C=C/C(=O)CC(=O)/C=C/c2ccc(O)c(OC)c2)ccc1O` [CURCUMIN] yielded an Activity in the experiment with Homo sapiens [5] of 40%.
